In patent US12233081B2, “Hygromycin a compounds and methods of treating spirochete diseases” (priority 2018, dated 2025):

Key:
gut microbiome = gut microbiome 16S rRNA sequencing of stool of infected, treated mice; settings: subcutaneous 156 mg/kg every 12 hours for 5 days
B. burgdorferi N40 = assay: C3H mice infected with Borrelia burgdorferi, cell counts in skin tissue; format: in vivo; settings: 156 mg/kg IP injection, 5 days of dosing
Procedure: C3H mice (Charles River Laboratories) are used in classical Lyme disease infection model. Mice were rested for more than 1 day after delivery before infected with 10^5 B. burgdorferi N40 cells by subcutaneous injection. Infection was established for 3 weeks. 100 μl of saline, ceftriaxone or hygromycin A was administered by IP injection. Compounds of the invention can also be tested for efficacy as described herein.
Ceftriaxone (USP grade) was purchased from Sigma-Aldrich. Saline was purchased from Baxter Healthcare. Ceftriaxone powder was dissolved into saline to 31.2 mg/ml solution. Hygromycin A stock solution at 200 mg/ml was diluted into saline to make 50 mg/ml (250 mg/kg), 15 mg/ml (75 mg/kg), 14 mg/ml (70 mg/kg), 10 mg/ml (50 mg/kg) and 5 mg/ml (25 mg/kg) solutions.
In the B. burgdorferi mice infection model, skin is the tissue with highest bacterial burden. After sacrificing mice 2 days after 5 days of dosing, we took 100 mg skin tissue from mouse ear, homogenized the tissue and plated on BSK-II semi-agar plates for cell number counts. No colony appearing on the plates is considered as clearance of the infection.

CO/N=C(\C(=O)N[C@@H]1C(=O)N2C(C(=O)O)=C(CSc3nc(=O)c(=O)[nH]n3C)CS[C@H]12)c1csc(N)n1 [Ceftriaxone]
Acholeplasmataceae change in percent relative abundance (gut microbiome): 0.213%
Aerococcaceae change in percent relative abundance (gut microbiome): 0.000%
Anaerolineaceae change in percent relative abundance (gut microbiome): 0.000%
Anaeroplasmataceae change in percent relative abundance (gut microbiome): 0.000%
Anaplasmataceae change in percent relative abundance (gut microbiome): 0.001%
Aspergillaceae change in percent relative abundance (gut microbiome): 0.000%
Asteraceae change in percent relative abundance (gut microbiome): 0.011%
Bacillaceae change in percent relative abundance (gut microbiome): 0.055%
Bacillales change in percent relative abundance (gut microbiome): −0.174%
Bacteroidaceae change in percent relative abundance (gut microbiome): −26.593%
Bifidobacteriaceae change in percent relative abundance (gut microbiome): 0.000%
Brucellaceae change in percent relative abundance (gut microbiome): 0.000%
Camobacteriaceae change in percent relative abundance (gut microbiome): 0.000%
Chitinophagaceae change in percent relative abundance (gut microbiome): 0.000%
Christensenellaceae change in percent relative abundance (gut microbiome): 0.000%
Clostridiaceae change in percent relative abundance (gut microbiome): −10.423%
Clostridiales change in percent relative abundance (gut microbiome): −0.174%
Clostridiales family xi. incertae sedis change in percent relative abundance (gut microbiome): −0.050%
Clostridiales family xiii. incertae sedis change in percent relative abundance (gut microbiome): −0.015%
Coriobacteriaceae change in percent relative abundance (gut microbiome): −0.049%
Corynebacteriaceae change in percent relative abundance (gut microbiome): 0.002%
Cytophagaceae change in percent relative abundance (gut microbiome): 0.000%
Deferribacteraceae change in percent relative abundance (gut microbiome): −1.344%
Defluviitaleaceae change in percent relative abundance (gut microbiome): −0.002%
Desulfobacteraceae change in percent relative abundance (gut microbiome): 0.000%
Enterobacteriaceae change in percent relative abundance (gut microbiome): −0.487%
Enterococcaceae change in percent relative abundance (gut microbiome): 77.7%
Erysipelotrichaceae change in percent relative abundance (gut microbiome): −1.012%
Eubacteriaceae change in percent relative abundance (gut microbiome): −3.445%
Fabaceae change in percent relative abundance (gut microbiome): 0.003%
Flavobacteriaceae change in percent relative abundance (gut microbiome): 0.000%
Francisellaceae change in percent relative abundance (gut microbiome): 0.000%
Fusobacteriaceae change in percent relative abundance (gut microbiome): 0.001%
Gammaproteobacteria change in percent relative abundance (gut microbiome): −0.008%
Gloeobacteraceae change in percent relative abundance (gut microbiome): −0.018%
Gracilibacteraceae change in percent relative abundance (gut microbiome): −0.087%
Halomonadaceae change in percent relative abundance (gut microbiome): 0.000%
Hylidae change in percent relative abundance (gut microbiome): 0.001%
Kopriimonadaceae change in percent relative abundance (gut microbiome): 0.000%
Lachnospiraceae change in percent relative abundance (gut microbiome): −11.193%
Lactobacillaceae change in percent relative abundance (gut microbiome): −1.712%
Leuconostocaceae change in percent relative abundance (gut microbiome): 0.015%
Methylobacteriaceae change in percent relative abundance (gut microbiome): 0.001%
Microbacteriaceae change in percent relative abundance (gut microbiome): 0.001%
Mucoraceae change in percent relative abundance (gut microbiome): 0.000%
Nostocaceae change in percent relative abundance (gut microbiome): 0.002%
Onagraceae change in percent relative abundance (gut microbiome): 0.000%
Oscillatoriales change in percent relative abundance (gut microbiome): 0.090%
Oscillospiraceae change in percent relative abundance (gut microbiome): −0.009%
Paenibacillaceae change in percent relative abundance (gut microbiome): 0.003%
Pasteurellaceae change in percent relative abundance (gut microbiome): 0.001%
Pelobacteraceae change in percent relative abundance (gut microbiome): 0.000%
Peptococcaceae change in percent relative abundance (gut microbiome): −0.602%
Peptoniphilaceae change in percent relative abundance (gut microbiome): 0.001%
Peptostreptococcaceae change in percent relative abundance (gut microbiome): −0.185%
Physalacriaceae change in percent relative abundance (gut microbiome): 0.000%
Poaceae change in percent relative abundance (gut microbiome): 0.820%
Polyangiaceae change in percent relative abundance (gut microbiome): 0.001%
Porphyromonadaceae change in percent relative abundance (gut microbiome): −24.493%
Prevotellaceae change in percent relative abundance (gut microbiome): −0.417%
Pseudomonadaceae change in percent relative abundance (gut microbiome): 0.002%
Rhizobiaceae change in percent relative abundance (gut microbiome): 0.001%
Rhodobacteraceae change in percent relative abundance (gut microbiome): 0.000%
Rikenellaceae change in percent relative abundance (gut microbiome): −6.750%
Ruminococcaceae change in percent relative abundance (gut microbiome): −2.217%
Sphingomonadaceae change in percent relative abundance (gut microbiome): 0.000%
Spirochaetaceae change in percent relative abundance (gut microbiome): −0.055%
Spiroplasmataceae change in percent relative abundance (gut microbiome): −0.051%
Staphylococcaceae change in percent relative abundance (gut microbiome): 0.047%
Streptococcaceae change in percent relative abundance (gut microbiome): 12.672%
Thermoanaerobacteraceae change in percent relative abundance (gut microbiome): −0.033%
Veillonellaceae change in percent relative abundance (gut microbiome): 0.000%
Verrucomicrobiaceae change in percent relative abundance (gut microbiome): −0.004%
Xanthomonadaceae change in percent relative abundance (gut microbiome): 0.001%
all other commensal taxa such as Bacteroidaceae and Lactobacillaceae (gut microbiome): depleted
mice with Enterococcaceae blooms (gut microbiome): 5/5
Enterococcaceae change in percent relative abundance (gut microbiome; listed as Cef): 77.719%
# of B. burgdorferi cells in 100 mg skin tissue (B. burgdorferi N40): <1
